Source: patent US9365502B2, “Neuroactive substituted cyclopenta[b]phenanthrenes as modulators for GABA type-A receptors” (priority 2013, dated 2016)
Like-named read-outs stand apart in the source and are kept apart here.

Experiments:
[1] = target: rat α1β2γ2L type GABAA receptors expressed in Xenopus laevis oocytes (Rattus norvegicus (Rat), UniProt P62813+P63138, INS375LLRMFSFK); experiment: Potentiation of GABA-mediated chloride currents, oocyte electrophysiology; assay type: cell-based; settings: ± SEM; for Oocyte electrophysiology 0.1 μM (ratio of currents in presence/absence of compound): 0.1 μM compound; for Oocyte electrophysiology 0.1 μM (ratio of currents in presence/absence of compound) / Oocyte electrophysiology 1.0 μM (ratio of currents in presence/absence of compound) / Oocyte electrophysiology 10 μM (ratio of currents in presence/absence of compound): 2 μM GABA, N>=4; for Oocyte electrophysiology 1.0 μM (ratio of currents in presence/absence of compound): 1.0 μM compound; for Oocyte electrophysiology (gating) 10 μM (ratio of compound only current/2 μM GABA current): 10 μM compound in the absence of GABA; for Oocyte electrophysiology 10 μM (ratio of currents in presence/absence of compound): 10 μM compound
Method: The compounds of the present disclosure were evaluated for the ability to potentiate chloride currents mediated by 2 μM GABA at rat α1β2γ2L type GABAA receptors expressed in Xenopus laevis oocytes and the results are shown in Table 2.
The GABA concentration used for the control response was 2 μM. Each compound was evaluated on at least four different oocytes at the concentrations indicated, and the results reported are the ratio of currents measured in the presence/absence of added compound. Gating represents direct current gated by 10 μM compound in the absence of GABA, and this current is reported as the ratio of compound only current/2 μM GABA current. Error limits are calculated as standard error of the mean (N≧4). Methods used are known in the art (see Jiang, X., et al.).

[2] = target: picrotoxin binding site on GABAA receptors; experiment: [35S]-TBPS displacement (inhibition of [35S]-TBPS binding); settings: mean ± SEM, duplicate experiments performed in triplicate
Method: The IC50 values for non-competitive displacers of [^35S]-TBPS from the picrotoxin binding site on GABAA receptors are reported in Table 1.
Results presented are from duplicate experiments performed in triplicate. Error limits are calculated as standard error of the mean. Methods used are known in the art (see Jiang, X., et al., Neurosteroid analogues. 9. Conformationally constrained pregnanes: structure-activity studies of 13,24-cyclo-18,21-dinorcholane analogues of the GABA modulatory and anesthetic steroids (3α,5α)- and […]. J. Med. Chem., 46: 5334-48 (2003)—the contents of which are hereby incorporated by reference in their entirety).

Tadpole = Tadpole loss of righting (LRR) and loss of swimming (LSR) reflexes; assay type: in vivo; settings: ± SEM
Method: Table 3 discloses the anesthetic effects of the compounds of the present disclosure. In particular, the anesthetic effect of the compounds of the present disclosure on Loss of Righting Reflex (LRR) and Loss of Swimming Reflex (LSR).
Methods used are known in the art (see Jiang, X., et al.). Error limits are calculated as standard error of the mean (N=10 or more animals at each of five or more different concentrations).

[3] = loss of righting reflex, read-out: Tadpole LRR EC50
[4] = loss of swimming reflex, read-out: Tadpole LSR EC50

Compound | melting point | Oocyte electrophysiology 0.1 μM (ratio of currents in presence/absence of compound) [1] | Oocyte electrophysiology 1.0 μM (ratio of currents in presence/absence of compound) [1] | Oocyte electrophysiology (gating) 10 μM (ratio of compound only current/2 μM GABA current) [1] | Oocyte electrophysiology 10 μM (ratio of currents in presence/absence of compound) [1] | IC50 [2] | EC50 (Tadpole; [3]) | EC50 (Tadpole; [4])
C[C@@]12CC[C@H](O)C[C@H]1CC[C@@H]1C[C@]3(C)C(=O)CC[C@H]3C[C@H]12 | 179 to 181 °C |  |  |  |  |  |  | 
C[C@@]12C[C@@H]3CC[C@@H]4C[C@H](O)CC[C@@H]4[C@H]3C[C@H]1CCC2=O (stereo in doubt) | 174 to 176 °C |  |  |  |  |  |  | 
C[C@@]12C[C@@H]3CC[C@H]4C[C@H](O)CC[C@@H]4[C@H]3C[C@H]1CC[C@]21CO1 | 165 to 167 °C |  |  |  |  |  |  | 
C[C@@]12CC[C@H](O)C[C@H]1CC[C@@H]1C[C@@]3(C)[C@@H](CC[C@@]34CO4)C[C@H]12 | 138 to 140 °C |  |  |  |  |  |  | 
C[C@]12C[C@H]3CC[C@H]4C[C@@H](O)CC[C@H]4[C@@H]3C[C@@H]1CCC2=O | 175 to 177 °C |  |  |  |  |  |  | 
CC(=O)[C@@H]1CC[C@@H]2C[C@H]3[C@@H](CC[C@H]4C[C@H](O)CC[C@@H]43)C[C@]21C | 128 to 130 °C |  |  |  |  |  |  | 
C[C@]12C[C@H]3CC[C@@H]4C[C@@H](O)CC[C@H]4[C@@H]3C[C@@H]1CC[C@@H]2C#N | 162 to 164 °C |  |  |  |  |  |  | 
C[C@@]12CC[C@H](O)C[C@H]1CC[C@@H]1C[C@]3(C)C(C#N)=CC[C@H]3C[C@H]12 (stereo in doubt) | 170 to 172 °C |  |  |  |  |  |  | 
C[C@]12CC(=O)C[C@@H]1C[C@H]1[C@@H](CC[C@H]3C[C@H](O)CC[C@@H]31)C2 | 165 to 166 °C |  |  |  |  |  |  | 
C[C@@]12C[C@@H]3CC[C@H]4C[C@H](O)CC[C@@H]4[C@H]3C[C@H]1CC[C@H]2C#N | 163 to 165 °C |  |  |  |  |  |  | 
CC(=O)[C@H]1CCC2CC3C(CCC4C[C@H](O)CCC43)C[C@@]21C (stereo partly shown) [MQ-39] |  | 1.32 ± 0.03 | 3.82 ± 0.36 | 0.03 ± 0.0 | 7.91 ± 0.64 | 65 ± 7 nM | 340 nM | 1070 nM
C[C@]12C[C@H]3CC[C@@H]4C[C@@H](O)CC[C@H]4[C@@H]3C[C@@H]1CC[C@@H]2[N+](=O)[O-] | 157 to 159 °C |  |  |  |  |  |  | 
C[C@]12CC(=O)CC1CC1C(CCC3C[C@H](O)CCC31)C2 (stereo partly shown) [MQ-48] |  | 1.03 ± 0.01 | 1.64 ± 0.06 | 0.01 ± 0.0 | 7.10 ± 1.51 | 282 ± 197 nM | 2390 ± 280 nM | 7490 nM
C[C@]12C[C@H]3CC[C@@H]4C[C@@H](O)CC[C@H]4[C@@H]3C[C@@H]1CC/C2=C/C#N [MQ-31] |  | 1.49 ± 0.09 | 3.93 ± 0.20 | 0.02 ± 0.02 | 8.25 ± 0.71 | 61 ± 4 nM | 430 ± 80 nM | 1040 nM
C[C@@]12CC3CC[C@H]4C[C@H](O)CCC4C3CC1CCC2=O (stereo partly shown) [MQ-47] |  | 1.10 ± 0.20 | 1.50 ± 0.28 | −0.01 ± 0.03 | 6.42 ± 1.11 | 1330 nM | 3760 ± 5220 nM | > 10000 nM
CC(=O)[C@@H]1CC[C@@H]2C[C@H]3[C@@H](CC[C@H]4C[C@H](O)CC[C@@H]43)C[C@]21C [MQ-50] |  | 1.02 ± 0.01 | 1.18 ± 0.02 | 0.0 ± 0.0 | 1.98 ± 0.07 | 1060 nM | 2010 ± 1300 nM | 10000 nM
C[C@]12C[C@H]3CC[C@@H]4C[C@@H](O)CC[C@@]4(C)[C@@H]3C[C@@H]1CC[C@@H]2C#N | 145 to 147 °C |  |  |  |  |  |  | 
C[C@@]12CC3CCC4C[C@H](O)CCC4C3CC1CC[C@]21CO1 (stereo partly shown) [MQ-54] |  | 1.01 ± 0.05 | 4.03 ± 0.31 | 0.05 ± 0.01 | 11.41 ± 1.18 | 1990 nM | 3340 ± 110 nM | 5480 ± 200 nM
C[C@@]12C[C@@H]3CC[C@@H]4C[C@H](O)CC[C@@H]4[C@H]3C[C@H]1CC[C@]21CO1 | 163 to 165 °C |  |  |  |  |  |  | 
C[C@]12C[C@H]3CC[C@@H]4C[C@@H](O)CC[C@H]4[C@@H]3C[C@@H]1CC[C@@H]2[N+](=O)[O-] [MQ-33] |  | 1.68 ± 0.10 | 5.30 ± 0.75 | 0.02 ± 0.01 | 9.08 ± 1.83 | 62 ± 6 nM | 240 ± 10 nM | 550 ± 10 nM
C[C@]12C[C@H]3CCC4C[C@@H](O)CC[C@H]4[C@@H]3C[C@@H]1CCC2=O (stereo partly shown) [MQ-36] |  | 1.11 ± 0.09 | 1.22 ± 0.05 | −0.06 ± 0.06 | 3.81 ± 0.45 | 1730 nM | 7900 ± 4450 nM | > 30000 nM
CC(=O)[C@H]1CC[C@H]2C[C@@H]3[C@H](CC[C@@H]4C[C@@H](O)CC[C@H]43)C[C@@]21C | 131 to 133 °C |  |  |  |  |  |  | 
